According to patent publication US9394260B2, “Pyrimidinone carboxamide inhibitors of endothelial lipase” (BRISTOL-MYERS SQUIBB COMPANY, priority 2012, dated 2016):

biological target: T1, endothelial lipase (EL) (Homo sapiens, UniProt Q9Y5X9); test: Endothelial lipase (EL) enzymatic assay with fluorescent substrate A10070 in DMPG vesicles; format: biochemical; settings: conditioned media from HT-1080 cells overexpressing endogenous EL, 20 min preincubation at 37° C.
T1 construct: transformed by RAGE technology (Athersys) to overexpress endogenous EL; endogenous in cells; conditioned medium used as the enzyme source
T1 sequence (Q9Y5X9 21-500): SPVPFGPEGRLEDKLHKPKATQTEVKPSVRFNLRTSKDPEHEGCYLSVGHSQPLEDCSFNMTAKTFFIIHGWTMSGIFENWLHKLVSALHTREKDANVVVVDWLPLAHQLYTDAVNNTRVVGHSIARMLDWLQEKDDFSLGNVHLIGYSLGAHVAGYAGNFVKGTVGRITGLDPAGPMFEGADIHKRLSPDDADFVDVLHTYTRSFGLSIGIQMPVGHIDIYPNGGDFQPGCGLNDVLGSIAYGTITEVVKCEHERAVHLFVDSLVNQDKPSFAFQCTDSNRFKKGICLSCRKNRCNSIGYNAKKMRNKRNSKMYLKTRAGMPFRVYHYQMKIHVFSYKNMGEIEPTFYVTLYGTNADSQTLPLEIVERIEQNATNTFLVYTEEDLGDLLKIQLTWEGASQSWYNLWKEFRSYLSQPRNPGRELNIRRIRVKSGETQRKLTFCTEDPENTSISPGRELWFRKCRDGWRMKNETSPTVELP
Procedure: Endothelial lipase activity was measured using a fluorescent substrate, A10070, (Invitrogen, CA) doped into an artificial vesicle containing DMPG (Avanti Polar Lipids) as the excipient. Vesicles were prepared by combining 285 μL of 1 mM DMPG in a 1:1 mixture of MeOH and CHCl3 with 15 μL of 1 mM A10070 in a 1:1 mixture of MeOH and CHCl3. The mixture was dried under nitrogen and resuspended in 150 μL of 50 mM HEPES pH 8.0 buffer containing 100 mM NaCl and 0.2 mM EDTA. The sample was allowed to sit at rt for 15 min and then was sonicated 3×4 mins on ice with a Branson Sonicator using duty cycle 1. This preparation provides vesicles with a mole fraction of 0.05 for the FRET substrate.
The enzymatic assay was measured using white, opaque 96-well half area plates. Each well contained 60 μL of assay buffer (50 mM HEPES pH 8.0, 50 mM NaCl and 1 mM CaCl2) and 2 ul of a DMSO solution containing compound of interest. Conditioned media obtained from HT-1080 cells, which were transformed by RAGE technology (Athersys) to overexpress endogenous EL, was added and the reaction was allowed to incubate for 20 min at 37° C. with gentle agitation. The reaction was started by the addition of 20 μL of a 1:4 dilution of vesicles. The final total reaction volume was 100 μL. The reaction rates were measured on a Gemini plate reader with an excitation wavelength of 488 nm and a emission of 530 nm. Readings were taken every 20 seconds for 10 min with agitation between each reading. The slope of the linear portion of the readout was used to calculate the rate of the reaction.
The exemplified examples disclosed in the present invention were tested in the EL assay described above and found having EL inhibitory activity. A range of EL IC50 values of ≦10 μM (10000 nM) was observed.

**Q.** Which IC50 does the source give for Nc1c(C(=O)NCC2CCN(S(=O)(=O)c3ccc(Cl)c(Cl)c3)CC2)[nH]c(=O)[nH]c1=O [Example 37, 5-amino-N-((1-(3,4-dichloro-phenylsulfonyl)piperidin-4-yl)methyl)-2,6-dioxo-1,2,3,6-tetrahydropyrimidine-4-carboxamide] here?
**A.** Its IC50 is 3170 nM.

**Q.** For C[C@H](COc1ccc(Cl)c2c1CCC2)NC(=O)c1[nH]c(=O)[nH]c(=O)c1N [Example 65, (R)-5-amino-N-(1-(7-chloro-2,3-dihydro-1H-inden-4-yloxy)propan-2-yl)-2,6-dioxo-1,2,3,6-tetrahydropyrimidine-4-carboxamide], which IC50 is on record?
**A.** Its IC50 is 223 nM.

**Q.** With Nc1c(C(=O)NCCCc2ccc(Cl)c(Cl)c2)[nH]c(=O)[nH]c1=O [Example 2, 5-amino-N-(3-(3,4-dichlorophenyl)propyl)-2,6-dioxo-1,2,3,6-tetrahydropyrimidine-4-carboxamide] as the compound, how does the IC50 read?
**A.** The IC50 was 149 nM.

**Q.** C[C@H](COc1ccccc1-c1nnco1)NC(=O)c1[nH]c(=O)[nH]c(=O)c1N [Example 115, (R)-N-(1-(2-(1,3,4-oxadiazol-2-yl)phenoxy)propan-2-yl)-5-amino-2,6-dioxo-1,2,3,6-tetra-hydropyrimidine-4-carboxamide] was tested. Which IC50 did it give?
**A.** Its IC50 is 4990 nM.

**Q.** With C[C@H](COc1ccc(Cl)cc1C(=O)c1ccccc1)NC(=O)c1[nH]c(=O)[nH]c(=O)c1N [Example 88, (R)-5-amino-N-(1-(2-benzoyl-4-chlorophenoxy)propan-2-yl)-2,6-dioxo-1,2,3,6-tetrahydropyrimidine-4-carboxamide] as the compound, how does the IC50 read?
**A.** The IC50 was 509 nM.

**Q.** C[C@@H](NC(=O)c1[nH]c(=O)[nH]c(=O)c1N)c1cccc(-c2cnn(CCc3c[nH]c4ccccc34)c2)c1 [Example 155, (R)-N-(1-(3-(1-(2-(1H-indol-3-yl)ethyl)-1H-pyrazol-4-yl)phenyl)ethyl)-5-amino-2,6-dioxo-1,2,3,6-tetrahydro-pyrimidine-4-carboxamide] was tested. Which IC50 did it give?
**A.** The IC50 was 422 nM.

**Q.** How did the IC50 turn out when C[C@@H](NC(=O)c1[nH]c(=O)[nH]c(=O)c1O)c1cccc(-c2cnn(Cc3ccccc3)c2)c1 [Example 181, (R)-N-(1-(3-(1-benzyl-1H-pyrazol-4-yl)phenyl)ethyl)-5-hydroxy-2,6-dioxo-1,2,3,6-tetra-hydropyrimidine-4-carboxamide] was run?
**A.** The IC50 was 10 nM.

**Q.** For Nc1c(C(=O)NCc2cccc(-n3cnc4ccccc43)c2)[nH]c(=O)[nH]c1=O [Example 28, N-(3-(1H-benzo[d]imidazol-1-yl)benzyl)-5-amino-2,6-dioxo-1,2,3,6-tetrahydropyrimidine-4-carboxamide], which IC50 is on record?
**A.** Its IC50 is 2200 nM.

**Q.** How did the IC50 turn out when Nc1c(C(=O)NCC2Cc3ccccc3C(c3ccccc3)C2)[nH]c(=O)[nH]c1=O (stereo not drawn) [Example 46, 5-amino-2,6-dioxo-N-((4-phenyl-1,2,3,4-tetrahydronaphthalen-2-yl)methyl)-1,2,3,6-tetrahydropyrimidine-4-carboxamide] was run?
**A.** The IC50 was 207 nM.

**Q.** With C[C@@H](NC(=O)c1[nH]c(=O)[nH]c(=O)c1N)c1cc(-c2cnn(Cc3ccccc3)c2)ccc1O [Example 143, (R)-5-amino-N-(1-(5-(1-benzyl-1H-pyrazol-4-yl)-2-hydroxyphenyl)ethyl)-2,6-dioxo-1,2,3,6-tetrahydro-pyrimidine-4-carboxamide] as the compound, how does the IC50 read?
**A.** Its IC50 is 6960 nM.

**Q.** Which IC50 does the source give for Nc1c(C(=O)NC[C@H]2C[C@@H]2c2ccc(F)cc2)[nH]c(=O)[nH]c1=O [Example 29, 5-amino-N-(((1S,2S)-2-(4-fluorophenyl)cyclopropyl)methyl)-2,6-dioxo-1,2,3,6-tetrahydropyrimidine-4-carboxamide] here?
**A.** Its IC50 is 7400 nM.

**Q.** Which IC50 does the source give for COc1ccc(CNc2c(C(=O)N[C@H](C)CCc3ccc(Cl)c(Cl)c3)[nH]c(=O)n(C)c2=O)cc1 [Example 171, (R)—N-(4-(3,4-Dichlorophenyl)butan-2-yl)-5-(4-methoxybenzylamino)-1-methyl-2,6-dioxo-1,2,3,6-tetrahydropyrimidine-4-carboxamide] here?
**A.** The IC50 was 358 nM.

**Q.** How did the IC50 turn out when C[C@@H](NC(=O)c1[nH]c(=O)[nH]c(=O)c1N)c1ccc2ccccc2c1 [Example 14, (R)-5-amino-N-(1-(naphthalen-2-yl)ethyl)-2,6-dioxo-1,2,3,6-tetrahydropyrimidine-4-carboxamide] was run?
**A.** The IC50 was 7510 nM.

**Q.** With C[C@@H](NC(=O)c1[nH]c(=O)[nH]c(=O)c1N)c1cccc(-c2ccn(Cc3ccccc3)n2)c1 [Example 136, (R)-5-amino-N-(1-(3-(1-benzyl-1H-pyrazol-3-yl)phenyl)ethyl)-2,6-dioxo-1,2,3,6-tetrahydro-pyrimidine-4-carboxamide] as the compound, how does the IC50 read?
**A.** Its IC50 is 20 nM.

**Q.** For Cc1nc2cc(OC[C@@H](C)NC(=O)c3[nH]c(=O)[nH]c(=O)c3N)ccc2s1 [Example 84, (R)-5-amino-N-(1-(2-methyl-benzo[d]thiazol-5-yloxy)propan-2-yl)-2,6-dioxo-1,2,3,6-tetrahydropyrimidine-4-carboxamide], which IC50 is on record?
**A.** The IC50 was 2000 nM.

**Q.** Which IC50 does the source give for C[C@H](COc1c(Cl)cccc1Cl)NC(=O)c1[nH]c(=O)[nH]c(=O)c1N [Example 54, (R)-5-amino-N-(1-(2,6-dichloro-phenoxy)propan-2-yl)-2,6-dioxo-1,2,3,6-tetra-hydropyrimidine-4-carboxamide] here?
**A.** Its IC50 is 11 nM.

**Q.** C[C@@H](NC(=O)c1[nH]c(=O)[nH]c(=O)c1N)c1cccc(-c2cnn(CC3CCN(C(=O)OCc4ccccc4)CC3)c2)c1 [Example 161, (R)-benzyl 4-((4-(3-(1-(5-amino-2,6-dioxo-1,2,3,6-tetra-hydropyrimidine-4-carboxamido)ethyl)phenyl)-1H-pyrazol-1-yl)methyl) piperidine-1-carboxylate] was tested. Which IC50 did it give?
**A.** Its IC50 is 441 nM.

**Q.** C[C@@H](NC(=O)c1[nH]c(=O)[nH]c(=O)c1O)c1cccc(OCc2ccccc2)c1 [Example 182, (R)-N-(1-(3-(benzyloxy)phenyl)ethyl)-5-hydroxy-2,6-dioxo-1,2,3,6-tetrahydro-pyrimidine-4-carboxamide] was tested. Which IC50 did it give?
**A.** The IC50 was 10 nM.

**Q.** With COc1cc(C)c(OC)c2c1CC(CNC(=O)c1[nH]c(=O)[nH]c(=O)c1N)CC2 (stereo not drawn) [Example 45, 5-amino-N-((5,8-dimethoxy-6-methyl-1,2,3,4-tetra-hydronaphthalen-2-yl)methyl)-2,6-dioxo-1,2,3,6-tetrahydropyrimidine-4-carboxamide] as the compound, how does the IC50 read?
**A.** The IC50 was 78 nM.

**Q.** For CCCOc1cc(F)ccc1CNC(=O)c1c(O)c(=O)n(C)c(=O)n1CCC [Example 176, N-(4-fluoro-2-propoxybenzyl)-5-hydroxy-1-methyl-2,6-dioxo-3-propyl-1,2,3,6-tetra-hydropyrimidine-4-carboxamide], which IC50 is on record?
**A.** Its IC50 is 4640 nM.

**Q.** With Nc1c(C(=O)NCC2CCc3nn(Cc4ccccc4)cc3C2)[nH]c(=O)[nH]c1=O (stereo not drawn) [Example 50, 5-amino-N-((2-benzyl-4,5,6,7-tetrahydro-2H-indazol-5-yl)methyl)-2,6-dioxo-1,2,3,6-tetrahydropyrimidine-4-carboxamide] as the compound, how does the IC50 read?
**A.** The IC50 was 2480 nM.

**Q.** With C[C@@H](NC(=O)c1[nH]c(=O)[nH]c(=O)c1N)c1cccc(-c2cnn(Cc3nc4ccccc4s3)c2)c1 [Example 160, (R)-5-amino-N-(1-(3-(1-(benzo[d]thiazol-2-ylmethyl)-1H-pyrazol-4-yl)phenyl)ethyl)-2,6-dioxo-1,2,3,6-tetra-hydropyrimidine-4-carboxamide] as the compound, how does the IC50 read?
**A.** The IC50 was 369 nM.

**Q.** How did the IC50 turn out when Nc1c(C(=O)NCc2cccc(-c3ccc(F)cc3)c2)[nH]c(=O)[nH]c1=O [Example 25, 5-amino-N-((4′-fluorobiphenyl-3-yl)methyl)-2,6-dioxo-1,2,3,6-tetrahydropyrimidine-4-carboxamide] was run?
**A.** Its IC50 is 4250 nM.

**Q.** With Nc1c(C(=O)NCC2CCN(C(=O)c3ccccc3)C2)[nH]c(=O)[nH]c1=O (stereo not drawn) [Example 44, 5-amino-N-((1-benzoylpyrrolidin-3-yl)methyl)-2,6-dioxo-1,2,3,6-tetrahydropyrimidine-4-carboxamide] as the compound, how does the IC50 read?
**A.** The IC50 was 3070 nM.
